# Experimental data published in EP0293500A1, “3-heteroalkyl-2,4.quinzaoline-diones” (AMERICAN CYANAMID COMPANY, priority 1987, dated 1988).
# Where a name gives a salt, the structure may show the parent alone.
# Tests used:
# [1] = target: T1, thromboxane synthetase (Rattus norvegicus, UniProt P49430); assay: Inhibition of thromboxane (TX) formation (TXB2 radioimmunoassay) in washed rat platelets; type: cell-based, Okamoto-Aoki spontaneously hypertensive rats (SHR); conditions: percent inhibition of TXB2 formation; drug at 10^-4M; SHR platelet suspension, 10 minutes at 37 C
# T1 construct: The platelets were isolated by centrifuging the PRP for 10 minutes at 1060xg; from tissue; host or cells: washed blood platelets from Okamoto-Aoki spontaneously hypertensive rats (SHR)
# T1 sequence (P49430 1-533): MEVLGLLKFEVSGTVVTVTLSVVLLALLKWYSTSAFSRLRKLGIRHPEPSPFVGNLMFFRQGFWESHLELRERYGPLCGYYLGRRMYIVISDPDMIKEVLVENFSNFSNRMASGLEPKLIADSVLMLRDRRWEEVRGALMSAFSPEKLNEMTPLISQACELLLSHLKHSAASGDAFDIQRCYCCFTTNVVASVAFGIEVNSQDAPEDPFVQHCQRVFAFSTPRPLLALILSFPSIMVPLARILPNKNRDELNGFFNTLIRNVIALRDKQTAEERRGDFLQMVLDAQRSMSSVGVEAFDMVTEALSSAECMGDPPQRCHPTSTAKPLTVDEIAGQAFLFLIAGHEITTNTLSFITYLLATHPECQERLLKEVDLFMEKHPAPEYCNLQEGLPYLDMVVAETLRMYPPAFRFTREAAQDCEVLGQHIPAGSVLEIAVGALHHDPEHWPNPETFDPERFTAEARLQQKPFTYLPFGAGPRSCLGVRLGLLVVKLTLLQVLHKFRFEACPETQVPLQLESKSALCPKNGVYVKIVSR
# Excerpt: The platelet rich plasma (PRP) was separated. […] The inhibition of thromboxane (TX) formation was studied by determing the concentration of thromboxane […] (TXB2), the stable hydrolysis product of TXA2.
# [2] = test system: spontaneously hypertensive rats of the Okamoto strain; assay: Hypotensive activity in spontaneously hypertensive rats (method of Chan and Poorvin); type: in vivo; conditions: male SHR, average MABP 160±1.5 mm of mercury; gavage, 100 mg/kg or less, second identical dose 24 hours later; MABP at 28 hours after the initial dose; number of rats in brackets
# Protocol: The novel compounds of the present invention are also active hypotensive agents and were tested for hypotensive activity by the method of P. S. Chan and b. Poorvin, Clinical and Experimental Hypertension, 1 (6), 817-830 (1979). Male, 16 week old, spontaneously hypertensive rats of the Okamoto strain, from Taconic Farms, Germantown, New York having an average mean arterial blood pressure of 160±1.5 mm of mercury were used in the test. […] A second identical dose of the test compound, without sodium chloride loading is given 24 hours later. At 28 hours after the initial dose, the mean arterial blood pressure (MABP) is measured by the method of Chan and Poorvin vide supra. The procedure is repeated in a second and third rat when necessary. The results of this test on representative compounds of the present invention appear in Table II below.
Compound,inhibition at 100 µM [1] [%],MABP/mm Hg (no. of rats) [2]
"O=c1[nH]c2ccccc2c(=O)n1CCCCCn1ccnc1 [Example 18, 3-[5-(1 H-Imidazol-1-yl)pentyl]-2,4(1H,3H)-quinazolinedione]",98,104(2) mm Hg
"O=c1c2ccccc2nnn1CCCCCCn1ccnc1 [Example 102, 3-[6-(1H-Imida-zol-1-yl)hexyl]-1,2,3-benzotria-zin-4(3H)-one, monohydrochloride]",96,87(2) mm Hg
"Cc1cn(CCCCn2c(=O)[nH]c3ccc(Cl)cc3c2=O)cn1 [Example 28, 6-Chloro-3-[4-(4-methyl-1H-imidazol-1-yl)butyl]-2,4(1H,3H)-quinazolinedione]",70,118(2) mm Hg
"O=c1[nH]c2ccc(Cl)cc2c(=O)n1CCCCn1ccnc1 [Example 24, 6-Chloro-3-[4-(1H-imidazol-1-yl)butyl]-2,4(1H,3H)-quinazolinedione]",93,106(2) mm Hg
"O=c1c2cc(Cl)ccc2ncn1CCCCn1ccnc1 [Example 124, 6-Chloro-3-[4-(1H-imidazol-1-yl)-butyl]-4(3H)-quinazolinone, dihydro-chloride]",99,106(2) mm Hg
"O=c1c2cc(Br)ccc2ncn1CCCn1ccnc1 [Example 126, 6-Bromo-3-[3-(1H-imidazol-1-yl)-propyl]-4(3H)-quinazolinone]",99,122(2) mm Hg
"O=c1c2ccccc2ncn1CCCn1ccnc1 [Example 122, 3-[3-(1 H-Imidazol-1-yl)propyl]-4(3H)-quinazolinone]",51,139(2) mm Hg
"O=c1c2cc(Cl)ccc2ncn1CCCCCCCCn1ccnc1 [Example 143, 6-Chloro-3-[8-(1H-imidazol-1-yl)octyl]-4(3H)-quinazolinone]",70,118(2) mm Hg
